Assay results reported in US9023844B2, “Heterocyclylpyri (mi) dinylpyrazole as fungicidals” (Bayer Intellectual Property GmbH, priority 2011, dated 2015).

Experiments:
[1] = Determination of log P values by HPLC on a reverse phase column (C18), EEC-Directive 79/831 Annex V.A8 (Methods A, B, C); assay type: physicochemical
Procedure, shortened: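 Three C18 chromatographic methods following EEC-Directive 79/831 Annex V.A8 gave the logP values. Method C (UPLC, 2.1 mm column) ran at 40 °C and 0.8 mL/min with a 3.25 min 10–95% acetonitrile gradient. Methods A and B both ran at 55 °C and 2.0 mL/min, with gradients of 10–95% in 4.25 min and 5–95% in 1.70 min.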

Botrytis cinerea = test: Example N: in vivo preventive test on Botrytis cinerea (grey mould); details: dose of 500 ppm; gherkin plants; grading 4-5 days after contamination
Procedure: The active ingredients tested are prepared by homogenization in a mixture of acetone/tween/DMSO and then diluted with water to obtain the desired active material.
Gherkin plants (“Vert petit de Paris” variety), sown in starter cups on a 50/50 peat soil-pozzolana substrate and grown at 24° C., are treated at the Z11 cotyledon stage by spraying with the active ingredient prepared as described above. Plants, used as controls, are treated with the mixture of acetone/tween/DMSO/water not containing the active material.
After 24 hours, the plants are contaminated by spraying the cotyledons with an aqueous suspension of cryopreserved Botrytis cinerea spores (50 000 spores per ml). The spores are suspended in a nutrient solution composed of 10 g/L of PDB, 50 g/L of D-Fructose, 2 g/L of NH4NO3 and 1 g/L of KH2PO4. The contaminated gherkin plants are incubated at 17° C. and at 80% relative humidity.
Grading (% of efficacy) is carried out 4-5 days after the contamination, in comparison with the control plants.

Pyricularia oryzae = assay type: in vivo; details: in vivo
Puccinia recondita = details: in vivo
Septoria tritici = details: in vivo
Sphaerotheca fuliginea = details: in vivo
[2] = test system: DON/Acetyl-DON production by Fusarium graminearum; test: microbe, parasite or virus in culture; assay type: cell-based; details: at 50 μM
Fusarium graminearum = test: microbe, parasite or virus in culture; assay type: cell-based; details: at 50 μM
Pyrenophora teres = details: in vivo
Phytophthora infestans [3] = details: in vivo
Uromyces appendiculatus = details: in vivo
Alternaria brassicae = details: in vivo
Phytophthora infestans [4] = assay type: in vivo; details: in vivo
Plasmopara viticola = test: Example H: Plasmopara test (grapevines) / preventive; assay type: in vivo; details: in vivo
Venturia inaequalis = test: Example I: Venturia test (apples) / preventive; details: 100 ppm of active ingredient, preventive spray, evaluated 10 days after inoculation
Procedure: After the spray coating has dried on, the plants are inoculated with an aqueous conidia suspension of the causal agent of apple scab (Venturia inaequalis) and then remain for 1 day in an incubation cabinet at approximately 20° C. and a relative atmospheric humidity of 100%.
The plants are then placed in a greenhouse at approximately 21° C. and a relative atmospheric humidity of approximately 90%.
The test is evaluated 10 days after the inoculation.

[5] = Method B (HPLC, reverse phase C18)
[6] = Method A: HPLC, reverse phase C18, acetonitrile (0.1% formic acid)/water (0.09% formic acid) gradient

Structure (SMILES)	LogP [1, 5]	protection (% of efficacy) (Botrytis cinerea) [%]	protection (% of efficacy) (Pyricularia oryzae) [%]	protection (% of efficacy) (Puccinia recondita) [%]	protection (% of efficacy) (Septoria tritici) [%]	protection (% of efficacy) (Sphaerotheca fuliginea) [%]	Inhibition of DON/AcDON in % [2] [%]	Growth inhibition of Fusarium graminearum in % (Fusarium graminearum) [%]	protection (% of efficacy) (Pyrenophora teres) [%]	LogP [1, 6]	protection (% of efficacy) (Phytophthora infestans [3]) [%]	protection (% of efficacy) (Uromyces appendiculatus) [%]	protection (% of efficacy) (Alternaria brassicae) [%]	efficacy (Phytophthora infestans [4]) [%]	efficacy (Plasmopara viticola) [%]	efficacy (Venturia inaequalis) [%]
O=C(Nc1cc(-c2c(-c3ccc(F)cc3)nn3c2OCCC3)ccn1)C1CC2CCC1C2 (stereo not drawn) [Example 64]	3.11	100	80	81	86	100	98	83	–	–	–	–	–	–	–	–
O=C(CN1CCCCC1)Nc1cc(-c2c(-c3ccc(F)cc3)nn3c2OCCC3)ccn1 [Example 66]	1	–	80	81	79	94	–	–	–	–	–	–	–	–	–	–
C[S+]([O-])C(C)(C)C(=O)Nc1cc(-c2c(-c3ccc(F)cc3)nn3c2OCCC3)ccn1 (stereo not drawn) [Example 68]	1.69	80	80	81	93	89	–	–	–	–	–	–	–	–	–	–
O=C(Nc1cc(-c2c(-c3ccc(F)cc3)nn3c2OCCC3)ccn1)C1SCCS1 [Example 69]	2.1	100	100	81	–	100	96	83	79	–	–	–	–	–	–	–
CCC(=O)Nc1cc(-c2c(-c3ccc(F)cc3)nn3c2O[C@H](C)C[C@H]3C)ccn1 [Example 72]	–	–	80	98	75	100	100	77	94	1.84	75	96	–	–	–	–
CCC(=O)Nc1cc(-c2c(-c3ccc(F)cc3)nn3c2O[C@H](C)C[C@@H]3C)ccn1 [Example 73]	–	–	90	88	–	100	100	83	94	1.74	85	86	–	–	–	–
CCC(=O)Nc1cc(-c2c(-c3ccc(F)cc3)nn3c2OCC(F)(F)C3)ccn1 [Example 74]	–	–	80	88	–	94	–	–	81	1.9	79	–	–	–	–	–
CCC(=O)Nc1cc(-c2c(-c3ccc(F)cc3)nn3c2OC(C)C3C)ccn1 (stereo not drawn) [Example 75]	–	–	90	88	–	100	100	88	98	1.67	95	100	–	–	–	–
CCC(=O)Nc1cc(-c2c(-c3ccc(F)cc3)nn3c(C)coc23)ccn1 [Example 103]	–	80	–	–	–	–	–	–	–	1.86	–	–	93	–	–	–
CCC(=O)Nc1cc(-c2c(-c3ccc(F)cc3)nn3c(CC)coc23)ccn1 [Example 104]	–	85	75	–	–	–	–	–	–	2.23	–	88	79	93	95	93
CCC(=O)Nc1cc(-c2c(-c3ccc(F)cc3)nn3ccoc23)ccn1 [Example 105]	–	100	–	75	–	–	99	83	81	1.61	–	96	93	95	100	93
CCC(=O)Nc1cc(-c2c(-c3ccccc3)nn3ccoc23)ccn1 [Example 106]	–	100	–	–	–	98	95	65	–	1.46	–	81	79	–	–	–
